Test results from patent publication US8101780B2, “Crystalline form of 3-(difluormethyl)-1-methyl-N-(3′,4′,5′-trifluor[1,1′-biphenyl]-2-yl)-1H-pyrazol-4-carboxamide” (BASF SE, priority 2007, dated 2012).

Assays:
Format in all cases: physicochemical
[1] = Slurry examples: forms suspended in water at 30° C., stirred, XRD analysis; settings: magnetic stirrer
Experimental: Slurry Examples Proving the Stability of Form B:
The form in question or mixtures of different forms of 3-(difluoromethyl)-1-methyl-N-(3′,4′,5′-trifluoro[1,1′-biphenyl]-2-yl)-1H-pyrazole-4-carboxamide were suspended in water at 30° C.

[2] = Phase conversion of the amorphous form at room temperature
Text: The phase transformation can be seen for example in a DSC measurement or under a hot stage microscope.

[3] = Formulation stability upon storage at 40° C. for one week (sedimentation, particle size, crystalline modification by DSC and PXRD); settings: SC formulation
Experimental: The stability of the crystalline forms was tested by formulating form A or form B according to examples 1 and 2 and analyzing the formulation stability in the form of sedimentation, particle size growth and change in crystalline modification.
The obtained formulations were assessed for their stability upon storage at 40° C. for one week. Microscopic pictures of the formulation were taken before and after storage at 40° C. to examplify the change in particle size. Dispersion stability was assessed using a 2% dilution of the formulation in water in a conical cylinder. The sedimentation volume is recorded after 2 hours of standing. The sediment was collected and analysed using DSC and powder diffraction diffractometry to characterized the solid sediment (giving thus evidence of the sediment amount and crystalline modification present in the sedimentation).
This would in practice be very unfavourable and cause blocking of nozzle during the application and inhomogeneous distribution of the active ingredient into the formulation.

Compound	Conversion of solid form in water suspension (XRD analysis) ([1]; after 1 day)	Conversion of solid form on standing [2]	Conversion of solid form in water suspension (XRD analysis) ([1]; after 2 days)	Phase transformation of the formulated active ingredient (DSC and PXRD) [3]
Cn1cc(C(=O)Nc2ccccc2-c2cc(F)c(F)c(F)c2)c(C(F)F)n1 [amorphous form, 3-(Difluormethyl)-1-methyl-N-(3′,4′,5′-trifluor[1,1′-biphenyl]-2-yl)-1H-pyrazol-4-carboxamide]	converted (based on XRD analysis) into form B	converts at room temperature slowly to crystalline form A or typically to mixtures of form A and form B	–	–
Cn1cc(C(=O)Nc2ccccc2-c2cc(F)c(F)c(F)c2)c(C(F)F)n1 [form A, 3-(Difluormethyl)-1-methyl-N-(3′,4′,5′-trifluor[1,1′-biphenyl]-2-yl)-1H-pyrazol-4-carboxamide]	–	–	converted (based on XRD analysis) into form B	converted fully into needle like crystals of form B
